#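 Briefly, cells in 96-well plates were exposed to five compound concentrations for 48 h, and endpoints were estimated by linear interpolation. TGI: total growth inhibition.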
# Key:
# Test in all cases: growth of human tumour cells (NCI), 48 h
# CAKI-1 renal = tested on: CAKI-1 renal
# SK-MEL-2 melanoma = tested on: SK-MEL-2 melanoma
# OVCAR-3 ovarian = tested on: OVCAR-3 ovarian
# HT29 colon = tested on: HT29 colon
# KM12 colon = tested on: KM12 colon
# OVCAR-8 ovarian = tested on: OVCAR-8 ovarian
# SK-MEL-28 melanoma = tested on: SK-MEL-28 melanoma
# TK-10 renal = tested on: TK-10 renal
# LOX IMVI melanoma = tested on: LOX IMVI melanoma
# NCI/ADR-RES ovarian = tested on: NCI/ADR-RES ovarian
# SK-MEL-5 melanoma = tested on: SK-MEL-5 melanoma
# HCT-15 colon = tested on: HCT-15 colon
# SF-295 CNS = tested on: SF-295 CNS
# EKVX NSCLC = tested on: EKVX NSCLC
# SK-OV-3 ovarian = tested on: SK-OV-3 ovarian
# HCC-2998 colon = tested on: HCC-2998 colon
# SN12C renal = tested on: SN12C renal
# K-562 leukemia = tested on: K-562 leukemia
# SNB-19 CNS = tested on: SNB-19 CNS
# HOP-62 NSCLC = tested on: HOP-62 NSCLC
# CCRF-CEM leukemia = tested on: CCRF-CEM leukemia
# SF-268 CNS = tested on: SF-268 CNS
# SW-620 colon = tested on: SW-620 colon
# MALME-3M melanoma = tested on: MALME-3M melanoma
# MOLT-4 leukemia = tested on: MOLT-4 leukemia
# COLO 205 colon = tested on: COLO 205 colon
# RPMI-8226 leukemia = tested on: RPMI-8226 leukemia
# HOP-92 NSCLC = tested on: HOP-92 NSCLC
# OVCAR-4 ovarian = tested on: OVCAR-4 ovarian
# M14 melanoma = tested on: M14 melanoma
# 786-0 renal = tested on: 786-0 renal
# UACC-62 melanoma = tested on: UACC-62 melanoma
# U251 CNS = tested on: U251 CNS
# DU-145 prostate = tested on: DU-145 prostate
# HL-60(TB) leukemia = tested on: HL-60(TB) leukemia
# NCI-H460 lung = tested on: NCI-H460 lung
# ACHN renal = tested on: ACHN renal
# UACC-257 melanoma = tested on: UACC-257 melanoma
# HCT-116 colon = tested on: HCT-116 colon
# MDA-N = tested on: MDA-N
# OVCAR-5 ovarian = tested on: OVCAR-5 ovarian
# NCI-H226 lung = tested on: NCI-H226 lung
# HS 578T breast = tested on: HS 578T breast
# T-47D breast = tested on: T-47D breast
# MDA-MB-435 = tested on: MDA-MB-435
# MDA-MB-231 breast = tested on: MDA-MB-231 breast
# SNB-75 CNS = tested on: SNB-75 CNS
# NCI-H23 lung = tested on: NCI-H23 lung
# PC-3 prostate = tested on: PC-3 prostate
# UO-31 renal = tested on: UO-31 renal
# A498 renal = tested on: A498 renal
# SR leukemia = tested on: SR leukemia
# SF-539 CNS = tested on: SF-539 CNS
# A549 NSCLC = tested on: A549 NSCLC
# RXF 393 renal = tested on: RXF 393 renal
# NCI-H522 lung = tested on: NCI-H522 lung
# BT-549 breast = tested on: BT-549 breast
# IGROV1 ovarian = tested on: IGROV1 ovarian
smiles,measurement,setting,value
CCOc1cc(/C=N\N(C)C)cc(/C=N\N(C)C)c1O,TGI,CAKI-1 renal,46.8 µM
same,TGI,SK-MEL-2 melanoma,77 µM
same,TGI,OVCAR-3 ovarian,> 100 µM
same,TGI,HT29 colon,> 100 µM
same,TGI,KM12 colon,> 100 µM
same,TGI,OVCAR-8 ovarian,56.2 µM
same,TGI,SK-MEL-28 melanoma,> 100 µM
same,TGI,TK-10 renal,> 100 µM
same,TGI,LOX IMVI melanoma,79.5 µM
same,TGI,NCI/ADR-RES ovarian,> 100 µM
same,TGI,SK-MEL-5 melanoma,73.2 µM
same,TGI,HCT-15 colon,> 100 µM
same,TGI,SF-295 CNS,> 100 µM
same,TGI,EKVX NSCLC,> 100 µM
same,TGI,SK-OV-3 ovarian,> 100 µM
same,TGI,HCC-2998 colon,> 100 µM
same,TGI,SN12C renal,> 100 µM
same,TGI,K-562 leukemia,> 100 µM
same,TGI,SNB-19 CNS,> 100 µM
same,TGI,HOP-62 NSCLC,> 100 µM
same,TGI,CCRF-CEM leukemia,> 100 µM
same,TGI,SF-268 CNS,61.2 µM
same,TGI,SW-620 colon,> 100 µM
same,TGI,MALME-3M melanoma,> 100 µM
same,TGI,MOLT-4 leukemia,> 100 µM
same,TGI,COLO 205 colon,34.3 µM
same,TGI,RPMI-8226 leukemia,> 100 µM
same,TGI,HOP-92 NSCLC,49.7 µM
same,TGI,OVCAR-4 ovarian,> 100 µM
same,TGI,M14 melanoma,> 100 µM
same,TGI,786-0 renal,> 100 µM
same,TGI,UACC-62 melanoma,> 100 µM
same,TGI,U251 CNS,89.9 µM
same,TGI,DU-145 prostate,> 100 µM
same,TGI,HL-60(TB) leukemia,> 100 µM
same,TGI,NCI-H460 lung,> 100 µM
same,TGI,ACHN renal,56 µM
same,TGI,UACC-257 melanoma,> 100 µM
same,TGI,HCT-116 colon,> 100 µM
same,TGI,MDA-N,> 100 µM
same,TGI,OVCAR-5 ovarian,> 100 µM
same,TGI,NCI-H226 lung,> 100 µM
same,TGI,HS 578T breast,> 100 µM
same,TGI,T-47D breast,> 100 µM
same,TGI,MDA-MB-435,> 100 µM
same,TGI,MDA-MB-231 breast,> 100 µM
same,TGI,SNB-75 CNS,77.7 µM
same,TGI,NCI-H23 lung,> 100 µM
same,TGI,PC-3 prostate,> 100 µM
same,TGI,UO-31 renal,> 100 µM
same,TGI,A498 renal,> 100 µM
same,TGI,SR leukemia,> 100 µM
same,TGI,SF-539 CNS,65.4 µM
same,TGI,A549 NSCLC,> 100 µM
Cc1ccc(-c2sc(-c3ccc(C)cc3)c3c2C2CCC3C2)cc1,TGI,CAKI-1 renal,> 50 µM
same,TGI,RXF 393 renal,> 50 µM
same,TGI,SK-MEL-2 melanoma,> 50 µM
same,TGI,OVCAR-3 ovarian,> 50 µM
same,TGI,HT29 colon,> 50 µM
same,TGI,KM12 colon,> 50 µM
same,TGI,OVCAR-8 ovarian,> 50 µM
same,TGI,SK-MEL-28 melanoma,> 50 µM
same,TGI,TK-10 renal,> 50 µM
same,TGI,LOX IMVI melanoma,> 50 µM
same,TGI,NCI/ADR-RES ovarian,> 50 µM
same,TGI,SK-MEL-5 melanoma,> 50 µM
same,TGI,HCT-15 colon,> 50 µM
same,TGI,SF-295 CNS,> 50 µM
same,TGI,EKVX NSCLC,> 50 µM
same,TGI,SK-OV-3 ovarian,> 50 µM
same,TGI,SN12C renal,> 50 µM
same,TGI,K-562 leukemia,> 50 µM
same,TGI,SNB-19 CNS,> 50 µM
same,TGI,HOP-62 NSCLC,> 50 µM
same,TGI,CCRF-CEM leukemia,> 50 µM
same,TGI,SF-268 CNS,> 50 µM
same,TGI,SW-620 colon,> 50 µM
same,TGI,MALME-3M melanoma,> 50 µM
same,TGI,MOLT-4 leukemia,> 50 µM
same,TGI,COLO 205 colon,> 50 µM
same,TGI,RPMI-8226 leukemia,> 50 µM
same,TGI,HOP-92 NSCLC,> 50 µM
same,TGI,OVCAR-4 ovarian,> 50 µM
same,TGI,M14 melanoma,> 50 µM
same,TGI,786-0 renal,> 50 µM
same,TGI,NCI-H522 lung,> 50 µM
same,TGI,UACC-62 melanoma,> 50 µM
same,TGI,U251 CNS,> 50 µM
same,TGI,DU-145 prostate,> 50 µM
same,TGI,HL-60(TB) leukemia,> 50 µM
same,TGI,NCI-H460 lung,> 50 µM
same,TGI,ACHN renal,> 50 µM
same,TGI,UACC-257 melanoma,> 50 µM
same,TGI,HCT-116 colon,> 50 µM
same,TGI,MDA-N,> 50 µM
same,TGI,OVCAR-5 ovarian,> 50 µM
same,TGI,NCI-H226 lung,> 50 µM
same,TGI,HS 578T breast,> 50 µM
same,TGI,T-47D breast,> 50 µM
same,TGI,MDA-MB-435,> 50 µM
same,TGI,BT-549 breast,> 50 µM
same,TGI,MDA-MB-231 breast,> 50 µM
same,TGI,NCI-H23 lung,> 50 µM
same,TGI,PC-3 prostate,> 50 µM
same,TGI,UO-31 renal,> 50 µM
same,TGI,A498 renal,> 50 µM
same,TGI,SR leukemia,> 50 µM
same,TGI,SF-539 CNS,> 50 µM
same,TGI,IGROV1 ovarian,> 50 µM
same,TGI,A549 NSCLC,> 50 µM
